# Patent US12454534B2, “Pyrrolo[2,3-b]pyrazines as HPK1 inhibitor and the use thereof” (BEIGENE, LTD., priority 2019, dated 2025)
# Molecular target: T1, HPK1 kinase (aa1-346, Life Technologies) (Homo sapiens, UniProt Q92918)
# T1 construct: HPK1 kinase (aa1-346, Life Technologies); purchased Life Technologies
# T1 sequence (Q92918 1-346): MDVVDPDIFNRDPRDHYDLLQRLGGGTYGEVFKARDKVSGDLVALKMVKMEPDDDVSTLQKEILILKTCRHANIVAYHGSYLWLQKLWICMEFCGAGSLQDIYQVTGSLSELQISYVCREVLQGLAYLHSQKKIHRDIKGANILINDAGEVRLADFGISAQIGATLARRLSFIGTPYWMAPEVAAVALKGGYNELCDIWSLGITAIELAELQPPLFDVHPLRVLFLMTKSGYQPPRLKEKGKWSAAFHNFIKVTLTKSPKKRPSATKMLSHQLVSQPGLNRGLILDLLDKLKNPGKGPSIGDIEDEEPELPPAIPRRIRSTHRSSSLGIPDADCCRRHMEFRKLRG
# Experiment: HPK1 Kinase Activity Assay at 1 mM ATP (TR-FRET)
# Type: biochemical
# Details: HPK1 40 nM, read-out: Enzymatic activity IC50
# Procedure: HPK1 Kinase Activity Assay at 1 mM ATP
# Compounds disclosed herein were tested for inhibition of HPK1 kinase (aa1-346, Life Technologies) activity in assays based on the time-resolved fluorescence-resonance energy transfer (TR-FRET) methodology. The assays were carried out in 384-well low volume black plates in a reaction mixture containing HPK1 kinase (40 nM), 1 mM ATP, 0.5 μM STK1 substrate and 0-10 μM compound in buffer containing 50 mM HEPES, 0.01% BSA, 0.1 mM Orthovanadate, 10 mM MgCl2, 1 mM DTT, pH=7.0, 0.005% Tween-20. The kinase was incubated with the compounds disclosed herein or DMSO for 60 minutes at room temperature and the reaction was initiated by the addition of ATP and STK1 substrate. After reaction at room temperature for 120 minutes, an equal volume of stop/detection solution was added according to the manufacturer's instruction (CisBio). The stop/detection solution contained STK Antibody-Cryptate and XL665-conjugated streptavidin in Detection Buffer. The TR-FRET signals (ratio of fluorescence emission at 665 nm over emission at 620 nm with excitation at 337 nm wavelength) were recorded on a PHERAstar FS plate reader (BMG Labtech). Phosphorylation of STK1 substrate led to the binding of STK Antibody-Cryptate to the biotinylated STK1 substrate, which places fluorescent donor (Eu^3+ cryptate) in close proximity to the accepter (Streptavidin-XL665), thus resulting in a high degree of fluorescence resonance energy transfer. The inhibition of HPK1 in presence of increasing concentrations of compounds was calculated based on the ratio of fluorescence at 665 nm to that at 620 nm. The IC50 for each compound was derived from fitting the data to the four-parameter logistic equation by Graphpad Prism software.
row,SMILES,IC50 [nM]
1,"Cc1cc(-c2c[nH]c3ncc(-c4cc(C)c5c(c4)CN(C)CC5)nc23)ccc1C(=O)N(C)C[C@@H](C)O [Example 4, (R)-4-(2-(2,5-dimethyl-1,2,3,4-tetrahydroisoquinolin-7-yl)-5H-pyrrolo[2,3-b]pyrazin-7-yl)-N-(2-hydroxypropyl)-N, 2-dimethylbenzamide]",92
2,"Cc1cc(-c2cnc3[nH]cc(-c4ccc(C(=O)N(C)C[C@@H](C)O)cc4)c3n2)cc2c1CCN(CCN1CCOCC1)C2 [Example 9, (R)—N-(2-hydroxypropyl)-N-methyl-4-(2-(5-methyl-2-(2-morpholinoethyl)-1,2,3,4-tetrahydroisoquinolin-7-yl)-5H-pyrrolo[2,3-b]pyrazin-7-yl)benzamide]",62
3,"Cc1cc(-c2c[nH]c3ncc(-c4cc(C)c5c(c4)CN(C)CC5)nc23)ccc1C(=O)N(C)C[C@H](C)O [Example 11, (S)-4-(2-(2,5-dimethyl-1,2,3,4-tetrahydroisoquinolin-7-yl)-5H-pyrrolo[2,3-b]pyrazin-7-yl)-N-(2-hydroxypropyl)-N, 2-dimethylbenzamide]",74
4,"CN[C@H]1CCN(C(=O)c2ccc(-c3c[nH]c4ncc(-c5cc6c(c(OC)c5)CCN(C)C6)nc34)cc2)C1 [Example 18, (S)-(4-(2-(5-methoxy-2-methyl-1,2,3,4-tetrahydroisoquinolin-7-yl)-5H-pyrrolo[2,3-b]pyrazin-7-yl)phenyl) (3-(methylamino)pyrrolidin-1-yl)methanone]",7
5,"Cc1cc(-c2cnc3[nH]cc(-c4ccc(C(=O)N5CC6(COC6)C5)cc4)c3n2)cc2c1CCN(C)C2 [Example 19, (4-(2-(2,5-dimethyl-1,2,3,4-tetrahydroisoquinolin-7-yl)-5H-pyrrolo[2,3-b]pyrazin-7-yl)phenyl) (2-oxa-6-azaspiro[3.3]heptan-6-yl)methanone]",13
6,"CC(=O)Nc1cc(-c2c[nH]c3ncc(-c4cc(C)c5c(c4)CN(C)CC5)nc23)ccc1C(=O)N(C)C [Example 21, 2-acetamido-4-(2-(2,5-dimethyl-1,2,3,4-tetrahydroisoquinolin-7-yl)-5H-pyrrolo[2,3-b]pyrazin-7-yl)-N, N-dimethylbenzamide]",75
7,"COc1cc(-c2cnc3[nH]cc(-c4ccc(C(=O)N(C)C)cc4)c3n2)cc2c1CN(C)CC2 [Example 22, 4-(2-(8-methoxy-2-methyl-1,2,3,4-tetrahydroisoquinolin-6-yl)-5H-pyrrolo[2,3-b]pyrazin-7-yl)-N, N-dimethylbenzamide]",11
8,"Cc1cc(-c2c[nH]c3ncc(-c4cc(C)c5c(c4)CN(CCC(=O)N4CCN(C)CC4)CC5)nc23)ccc1C(=O)N(C)C [Example 24, N, N, 2-trimethyl-4-(2-(5-methyl-2-(3-(4-methylpiperazin-1-yl)-3-oxopropyl)-1,2,3,4-tetrahydroisoquinolin-7-yl)-5H-pyrrolo[2,3-b]pyrazin-7-yl)benzamide]",75
9,"CNC(=O)CCN1CCc2c(C)cc(-c3cnc4[nH]cc(-c5ccc(C(=O)N(C)C)c(C)c5)c4n3)cc2C1 [Example 25, N, N, 2-trimethyl-4-(2-(5-methyl-2-(3-(methylamino)-3-oxopropyl)-1,2,3,4-tetrahydroisoquinolin-7-yl)-5H-pyrrolo[2,3-b]pyrazin-7-yl)benzamide]",49

# Now from value to molecule:
row,IC50 [nM],SMILES
1,21,"Cc1cc(-c2cnc3[nH]cc(-c4ccc(C(=O)N(C)C[C@H](C)O)cc4)c3n2)cc2c1CCN(C)C2 [Example 5, (S)-4-(2-(2,5-dimethyl-1,2,3,4-tetrahydroisoquinolin-7-yl)-5H-pyrrolo[2,3-b]pyrazin-7-yl)-N-(2-hydroxypropyl)-N-methylbenzamide]"
2,34,"COc1cc(-c2cnc3[nH]cc(-c4cc(F)c(C(=O)N(C)C[C@@H]5CCOC5)c(F)c4)c3n2)cc2c1CN(C)CC2 [Example 7A, (S)-2,6-difluoro-4-(2-(8-methoxy-2-methyl-1,2,3,4-tetrahydroisoquinolin-6-yl)-5H-pyrrolo[2,3-b]pyrazin-7-yl)-N-methyl-N-((tetrahydrofuran-3-yl)methyl)benzamide]"
3,31,"COc1cc(-c2cnc3[nH]cc(-c4cc(F)c(C(=O)N(C)C[C@H]5CCOC5)c(F)c4)c3n2)cc2c1CN(C)CC2 [Example 7B, (R)-2,6-difluoro-4-(2-(8-methoxy-2-methyl-1,2,3,4-tetrahydroisoquinolin-6-yl)-5H-pyrrolo[2,3-b]pyrazin-7-yl)-N-methyl-N-((tetrahydrofuran-3-yl)methyl)benzamide]"
4,36,"Cc1cc(-c2cnc3[nH]cc(-c4ccc(C(=O)N(C)C[C@@H](C)O)cc4)c3n2)cc2c1CCN(C)C2 [Example 8, (R)-4-(2-(2,5-dimethyl-1,2,3,4-tetrahydroisoquinolin-7-yl)-5H-pyrrolo[2,3-b]pyrazin-7-yl)-N-(2-hydroxypropyl)-N-methylbenzamide]"
5,52,"COc1cc(-c2cnc3[nH]cc(-c4ccc(C(=O)N(C)C[C@H](C)O)c(C)c4)c3n2)cc2c1CCN(C)C2 [Example 12, (S)—N-(2-hydroxypropyl)-4-(2-(5-methoxy-2-methyl-1,2,3,4-tetrahydroisoquinolin-7-yl)-5H-pyrrolo[2,3-b]pyrazin-7-yl)-N, 2-dimethylbenzamide]"
6,45,"Cc1cc(-c2cnc3[nH]cc(-c4ccc(C(=O)N(C)C[C@H](C)O)cc4)c3n2)cc2c1CCN(CCN1CCOCC1)C2 [Example 13, (S)—N-(2-hydroxypropyl)-N-methyl-4-(2-(5-methyl-2-(2-morpholinoethyl)-1,2,3,4-tetrahydroisoquinolin-7-yl)-5H-pyrrolo[2,3-b]pyrazin-7-yl)benzamide]"
7,12,"CN[C@H]1CCN(C(=O)c2ccc(-c3c[nH]c4ncc(-c5cc(C)c6c(c5)CN(C)CC6)nc34)cc2)C1 [Example 14, (S)-(4-(2-(2,5-dimethyl-1,2,3,4-tetrahydroisoquinolin-7-yl)-5H-pyrrolo[2,3-b]pyrazin-7-yl)phenyl) (3-(methylamino)pyrrolidin-1-yl)methanone]"
8,24,"Cc1cc(-c2c[nH]c3ncc(-c4cc(C)c5c(c4)CN(C)CC5)nc23)ccc1C(=O)N1CC(O)C1 [Example 17, (4-(2-(2,5-dimethyl-1,2,3,4-tetrahydroisoquinolin-7-yl)-5H-pyrrolo[2,3-b]pyrazin-7-yl)-2-methylphenyl) (3-hydroxyazetidine-1-yl)methanone]"
9,122,"Cc1cc(-c2c[nH]c3ncc(-c4cc(C)c5c(c4)CN(CCC(=O)N[C@H]4CC[C@H](O)CC4)CC5)nc23)ccc1C(=O)N(C)C [Example 23, 4-(2-(2-(3-((trans-4-hydroxycyclohexyl)amino)-3-oxopropyl)-5-methyl-1,2,3,4-tetrahydroisoquinolin-7-yl)-5H-pyrrolo[2,3-b]pyrazin-7-yl)-N, N, 2-trimethylbenzamide]"
10,63,"Cc1cc(-c2c[nH]c3ncc(-c4cc(C)c5c(c4)CN(CCC(=O)N(C)C)CC5)nc23)ccc1C(=O)N(C)C [Example 26, 4-(2-(2-(3-(dimethylamino)-3-oxopropyl)-5-methyl-1,2,3,4-tetrahydroisoquinolin-7-yl)-5H-pyrrolo[2,3-b]pyrazin-7-yl)-N, N, 2-trimethylbenzamide]"
11,26,"COc1ccc(NC(=O)CCN2CCc3c(C)cc(-c4cnc5[nH]cc(-c6ccc(C(=O)N(C)C)c(C)c6)c5n4)cc3C2)cc1 [Example 27, 4-(2-(2-(3-(4-methoxyphenylamino)-3-oxopropyl)-5-methyl-1,2,3,4-tetrahydroisoquinolin-7-yl)-5H-pyrrolo[2,3-b]pyrazin-7-yl)-N, N, 2-trimethylbenzamide]"
12,67,"Cc1cc(-c2c[nH]c3ncc(-c4cc(C)c5c(c4)CN(CCC(=O)NC4CCOCC4)CC5)nc23)ccc1C(=O)N(C)C [Example 28, N, N, 2-trimethyl-4-(2-(5-methyl-2-(3-oxo-3-(tetrahydro-2H-pyran-4-ylamino)propyl)-1,2,3,4-tetrahydroisoquinolin-7-yl)-5H-pyrrolo[2,3-b]pyrazin-7-yl)benzamide]"
13,46,"Cc1cc(-c2c[nH]c3ncc(-c4cc(C)c5c(c4)CN(CCC(=O)NC[C@@H](C)O)CC5)nc23)ccc1C(=O)N(C)C [Example 29, (R)-4-(2-(2-(3-(2-hydroxypropylamino)-3-oxopropyl)-5-methyl-1,2,3,4-tetrahydroisoquinolin-7-yl)-5H-pyrrolo[2,3-b]pyrazin-7-yl)-N, N, 2-trimethylbenzamide]"
